What all share (assay type): binding, rabbit
Assay [1] deals with antibodies developed with immunoreactive agents described herein. The assay is described as follows: Determination of cross-reactivity by ELISA. The conditions noted are these: for % CR (cross-reactivity): (DI50 CPFX/DI50 of tested compounds)×100; for IC50: competitive ELISA, antiserum and immunoreactive agent not named. Here is the method:
(§1) Microtiter plates were coated with corresponding coating antigen (indirect format) or antiserum (direct format) dissolved in coating buffer (100 μL/well) overnight at 4° C. or during 4 hours at room temperature and covered with airtight adhesive plates. Subsequently, plates were washed with PBST (four times, 300 μL/well) and quinolone patters were added (0.01 nM-10000 nM, in PBST, 50 μL/well) followed by the corresponding antiserum (indirect format) or enzymatic tracer (direct format) (50 μL/well) in microtiter plates. After 30 minutes at room temperature, plates were washed as described above and, in the case of indirect format, a solution of antilgG rabbit IgG labelled with HRP (1/6000 in PBST) (100 μl/well) was added and incubated for 30 minutes at room temperature. Plates were washed again, and for both formats, substrate solution was added (100 μL/well). Color development was stopped after 30 minutes at room temperature with […] (50 μL/well), and absorbance was read at 450 nm. Standard curves were adjusted to a four parameter equation, using the following formula: Y−[(A−B)/1−[x/C)D]+B, where A represents maximum absorbance, B represents minimum absorbance, C represents the concentration producing 50% of maximum absorbance, and D represents the tangent at the inflection point of sigmoid curve.
Stock solutions were prepared at a concentration of […] for different quinolones and other antibiotics in sodium hydroxide ([…]) and measured by ELISA. Cross-reactivity values were calculated according to the equation below: (DI50 CPFX/DI50 of tested compounds)×100.

The subject of assay [2] is antiserum (As) 171. Nature of the assay: Competitive ELISA for ciprofloxacin, antiserum 171 with HRP conjugate I31 (enzymatic tracer). The conditions noted are these: As 171 dilution 1/8000; IR I31 0.0625 μg/mL. Here is the method: Immunization protocol was conducted in female white rabbits from New Zealand weighing 1-2 Kg, as described previously (Salvador, Analytical Chemistry. 2007, 79, 3734-3740). Immunogens (100 μg) dissolved in PBS (0.5 mL) were emulsified with Freund's adjuvant, completely the first time and the remainder incompletely, in 1:1 ratio. They were rapidly injected intradermally in different places of the host animal back (one injection per month). Antibody titers evolution was assessed by measuring serial dilutions binding of different antiserum in microtiter plates coated with the corresponding immunoreactive agent. […]
Microtiter plates were coated with corresponding coating antigen (indirect format) or antiserum (direct format) dissolved in coating buffer (100 μL/well) overnight at 4° C. or during 4 hours at room temperature and covered with airtight adhesive plates. […] Color development was stopped after 30 minutes at room temperature with […] (50 μL/well), and absorbance was read at 450 nm. Standard curves were adjusted to a four parameter equation, using the following formula: Y−[(A−B)/1−[x/C)D]+B, where A represents maximum absorbance, B represents minimum absorbance, C represents the concentration producing 50% of maximum absorbance, and D represents the tangent at the inflection point of sigmoid curve.
(In general: ELISA stands for enzyme-linked immunosorbent assay.)

In another assay the test system is antiserum (As) 172. Nature of the assay: Competitive ELISA for ciprofloxacin, antiserum 172, coating antigen (indirect format). Here is the method:
(§2) Immunization protocol was conducted in female white rabbits from New Zealand weighing 1-2 Kg, as described previously (Salvador, Analytical Chemistry. 2007, 79, 3734-3740). Immunogens (100 μg) dissolved in PBS (0.5 mL) were emulsified with Freund's adjuvant, completely the first time and the remainder incompletely, in 1:1 ratio. They were rapidly injected intradermally in different places of the host animal back (one injection per month). Antibody titers evolution was assessed by measuring serial dilutions binding of different antiserum in microtiter plates coated with the corresponding immunoreactive agent. After observing an acceptable antibody titer, animals were bled to death and their blood was collected in Vacutainer tubes fitted with a serum separating gel. Antiserum were obtained by centrifugation and stored at −80° C. in the presence of 0.02% NaN3.
as §1, with “Plates were washed again, and for both formats, substrate solution was added (100 μL/well).” left out

Assay [3] has as its system antiserum (As) 171. Nature of the assay: Competitive ELISA for ciprofloxacin, antiserum 171, coating antigen (indirect format). Here is the method:
as §2
as §1, with “Plates were washed again, and for both formats, substrate solution was added (100 μL/well).” left out

The test system of another assay is antiserum (As) 173. Nature of the assay: Competitive ELISA for ciprofloxacin, antiserum 173, coating antigen (indirect format). Here is the method: as §2
as §1, with “Plates were washed again, and for both formats, substrate solution was added (100 μL/well).” left out

The source of these data is patent US10150736B2, “Haptens and immunoreactive agents and use thereof for producing family antibodies and immunoassays for quinolones” (Consejo Superior de Investigaciones Cientificas (CSIC), priority 2010, dated 2018).

Values after ≈ are worked out from the molar mass of the structure shown.

As to `CC1(C)S[C@@H]2[C@H](NC(=O)[C@H](N)c3ccccc3)C(=O)N2[C@H]1C(=O)O` [Ampicillin], in assay [1], the “% CR (cross-reactivity)” value is on record as under 0.2% and the IC50 was over 1000 μg-L^−1.
Take `O=C(O)c1cn(C2CC2)c2cc(N3CCNCC3)c(F)cc2c1=O` [Ciprofloxacin]: the IC50 in the assay with antiserum (As) 171 [2] was 0.00081 µg/mL (≈ 0.00244 µM); in assay [1], 0.77 ± 0.27 μg-L^−1; with antiserum (As) 172 (As 172 dilution 1/4000, IR I16 2.5 μg/mL) it was 0.03839 µg/mL (≈ 0.116 µM); in the assay on antiserum (As) 172 (As 172 dilution 1/4000, IR I26 0.25 μg/mL), 0.01156 µg/mL (≈ 0.0349 µM); with antiserum (As) 172 (As 172 dilution 1/32000, IR I19 0.0156 μg/mL), 0.0276 µg/mL (≈ 0.0833 µM); with antiserum (As) 171 [3] (As 171 dilution 1/16000, IR I16 2.5 μg/mL) it was 0.0164 µg/mL (≈ 0.0495 µM). For the same compound, the IC50 in the assay with antiserum (As) 171 [3] (As 171 dilution 1/16000, IR I26 0.25 μg/mL) came to 0.00166 µg/mL (≈ 0.00501 µM); with antiserum (As) 171 [3] (As 171 dilution 1/128000, IR I19 0.0156 μg/mL), 0.00481 µg/mL (≈ 0.0145 µM); with antiserum (As) 173 (As 173 dilution 1/16000, IR I16 5 μg/mL) it was 0.13468 µg/mL (≈ 0.406 µM); in the assay with antiserum (As) 173 (As 173 dilution 1/16000, IR I26 0.25 μg/mL) it was 0.00149 µg/mL (≈ 0.0045 µM); in the assay with antiserum (As) 173 (As 173 dilution 1/128000, IR I19 0.0156 μg/mL) it was 0.04855 µg/mL (≈ 0.147 µM). Moreover, in assay [1], the “% CR (cross-reactivity)” value is recorded as 100%.
Consider `Nc1ccc(S(=O)(=O)Nc2nccs2)cc1` [Sulfathiazole], for which, in assay [1], the “% CR (cross-reactivity)” value is under 0.2% and the IC50 was over 1000 μg-L^−1.
The like results for `O=C(N[C@H](CO)[C@H](O)c1ccc([N+](=O)[O-])cc1)C(Cl)Cl` [Chloramphenicol] were, in that order, under 0.2% and over 1000 μg-L^−1.
The like results for `Cc1cc(C)nc(NS(=O)(=O)c2ccc(N)cc2)n1` [Sulfamethazine] were, in that order, under 0.2% and over 1000 μg-L^−1.
The matching figures for `CN1CCN(c2c(F)cc3c(=O)c(C(=O)O)cn4c3c2OCN4C)CC1` [Marbofloxacin]: 28% and 4.30 μg-L^−1.
With `CN1C[C@@H]2C[C@H]1CN2c1cc2c(cc1F)c(=O)c(C(=O)O)cn2C1CC1` [Danofloxacin], in assay [1], the “% CR (cross-reactivity)” value amounted to 8% and the IC50 is recorded as 7.31 μg-L^−1.
The like results for `CCn1cc(C(=O)O)c(=O)c2cc(F)c(N3CCNCC3)cc21` [Norfloxacin] were, in that order, 81% and 0.78 μg-L^−1.
The matching figures for `CC1CCc2cc(F)cc3c(=O)c(C(=O)O)cn1c23` (stereo not drawn) [Flumequine]: 22% and 3.91 μg-L^−1.
The matching figures for `CCn1cc(C(=O)O)c(=O)c2cc3c(cc21)OCO3` [Oxolinic acid]: 4% and 23.53 μg-L^−1.
`O=C(O)c1cn(-c2ccc(F)cc2)c2cc(N3CCNCC3)c(F)cc2c1=O` [Sarafloxacin]: in assay [1], the “% CR (cross-reactivity)” value is 80% and the IC50 is listed as 0.96 μg-L^−1.
The matching figures for `CN1CCN(c2cc3c(cc2F)c(=O)c(C(=O)O)cn3-c2ccc(F)cc2)CC1` [Difloxacin]: 75% and 0.91 μg-L^−1.
The like results for `CCN1CCN(c2cc3c(cc2F)c(=O)c(C(=O)O)cn3C2CC2)CC1` [Enrofloxacin] were, in that order, 95% and 0.65 μg-L^−1.
